According to US20250032580A1, “USE OF ADNF POLYPEPTIDES IN THERAPY” (RAMOT AT TEL-AVIV UNIVERSITY LTD., priority 2021, published 2025):

Assays:
Assay type in all cases: cell-based, mouse
[1] = tested on: differentiated N1E-115 cells; test: FRAP of mCherry-Tau (Tau-MT interaction)
Experimental: (§1) Cell culture—Mouse neuroblastoma NIE-115 cells were maintained in Dulbecco's modified Eagle's medium, 10% fetal bovine serum, 2 mM glutamine and 100 U ml—1 penicillin, […] ml—1 streptomycin (Biological Industries, Beit Haemek, Israel). The cells were incubated in 95% air/5% CO2 in a humidified incubator at 37° C.
(§2) Cell differentiation and co-transfection of overexpression plasmids—Cultured NIE-115 cells were plated on 35 mm dishes (81156, 60μ-Dish, Ibidi, Martinsried, Germany) at a concentration of 1.25×10^4 cells per dish and then were differentiated with reduced fetal bovine serum (2%) and DMSO (1.25%) containing medium for 5 days before transfection. 48 hrs before experiments N1E-115 cells were co-transfected with 1 μg EB3-RFP or mCherry-Tau (3R) plasmid with or without 2 μg of plasmids, coding to GFP conjugated to full-length human ADNP, or ADNP carried mutations. 1:3 ratios between total amount of transfected DNA and transfection reagent were used according to manufacture guidance (Lipofectamine2000, Thermo Fisher Scientific, Waltham, MA, USA) in all subsequent experiments.
Fluorescence recovery after photobleaching (FRAP)—Differentiated NIE-115 cells were transfected with mCherry-Tau with or without GFP-conjugated to full-length ADNP or mutated ADNP, and imaged 48 hrs after transfection. An ROI for photobleaching was drowned in the proximal cell branches. mCherry-Tau was bleached with a […], and fluorescence recovery was collected within wavelengths of 610-650 nm. 80 images were taken every 0.74 sec immediately after bleaching. After FRAP imaging all samples were also treated with NAP in final concentrations of 10^−12 M, and after 4 hrs time-lapse imaging was done again under the same conditions. FRAP imaging for assessment difference between NAP and SKIP (SEQ ID NO: 21) activity was performed after an hour of ZnCl2 treatment (400 μM final concentration; Sigma, Rehovot, Israel) with or without NAP/SKIP (10^−12 M final concentration). Fluorescence signals were quantified with Fiji, obtained data were normalized with easyFRAP [82, 83] and FRAP recovery curves were fitted by a one-phase exponential association function by GraphPad Prism6 (GraphPad Software, Inc., La Jolla, CA, USA) while samples with R^2<0.9 were excluded.
Next, the effect of full-length/truncated ADNP forms with or without NAP treatment on Tau-MT interaction was examined by fluorescence recovery after photobleaching (FRAP) (FIGS. 8A-C). FRAP was performed with mCherry-tagged Tau protein (FIG. 8A). […] Therefore, the immobile mCherry-Tau fraction reflects the rate of Tau association with MTs.

[2] = tested on: differentiated N1E-115 cells; test: Live imaging of EB3 comet-like structures (MT dynamics); conditions: 10^−12 M, 4 hrs
Experimental: as §1, §2
Live Imaging—48 hrs after transfection, differentiated NIE-115 cells (expressing EB3-RFP with or without GFP-conjugated to full-length ADNP or mutated ADNP) were incubated at 37° C. with a 5% CO2/95% air mixture in a thermostatic chamber placed on the stage of a Leica TCS SP5 confocal microscope (objective 100× (PL Apo) oil immersion, NA 1.4). Time-lapse images were automatically captured 3 sec during 1 min, using the Leica LAS AF software. After imaging all samples were also treated with NAP (SEQ ID NO: 2) or SKIP (SEQ ID NO: 21) in final concentrations of 10^−12 M, and after 4 hrs time-lapse imaging was done again under the same conditions. Data was collected and analyzed by Imaris software.
To evaluate the effect of ADNP truncated proteins on MT dynamics time-lapse imaging of EB3 comet-like structures formed by RFP-tagged EB3 proteins that bind to MT plus-ends was performed. Two parameters of EB3 activity were used to assess MT dynamics—track length and track speed of EB3 comets, which reflect the length of freshly growing MTs and the speed of MT assembly, respectively. Furthermore, the present inventors aimed to determine whether NAP (10^−12 M for 4 hrs) could prevent the deleterious effect of ADNP mutations.

N1E-115 cells = test: Polymerized vs. soluble tubulin assay; conditions: zinc 400 μM, 4 h, peptide 10^−12 M
Experimental: Polymerized vs. soluble tubulin assay—To quantify tubulin polymerization and Tau-MT association, a simple assay was performed as previously described. The cells grown to confluence in six-well plates were washed with MT buffer (80 mM PIPES pH 6.8, 1 mM MgCl^2, 2 mM EGTA, 5% Glycerol) and lysed at room temperature for 5 min through centrifugation (300 g), with 150 μl of MT buffer with 0.5% Triton X-100 to extract soluble (cytosolic) tubulin (S). The pelleted cells were rinsed once again with an equal volume of modified RIPA lysis buffer (50 mM Tris-HCL pH 7.4, 150 mM NaCl, 2 mM EGTA, 1% Triton X-100, 0.1% SDS, 0.1% sodium Deoxycholate) to collect the polymerized (cytoskeletal) tubulin (P). The cytosolic and cytoskeletal fractions were each mixed with sample buffer and heated at 95° C. for 5 min. An equal volume of each fraction was analyzed by immunoblotting with Tau, tubulin and actin antibodies, and the results following ECL development were quantified by densitometry (GelQuant.NET software provided by biochemlabsolutions(dot)com).
It is known that in the presence of extracellular zinc NAP protects MT against degradation by promoting Tau binding to the MT shaft. Polymerized vs. soluble tubulin assay was effected to compare protective activities of NAP and SKIP against MT degradation and Tau-MT dissociation (FIGS. 11F-G). After treatments with zinc (400 μM, 4 h) with and without NAP or SKIP (10^−12 M, 4 h) the cellular-tubulin pool was separated into polymerized and soluble tubulin fractions. The amount of Tau, tubulin, and actin was identified by immunoblotting (FIG. 11F), followed by densitometric quantification (FIG. 11G).

Row | Compound | Tau immobile fraction in comparison to non-treated control ([1]; 400 μM, 1 h) | Efficacy in terms of MT-Tau interactions, as compared with NAP ([1]; summary of results) | Tau immobile fraction under zinc ([1]; zinc 400 μM, 1 h, together with peptide 10^−12 M) | Difference between effects of NAP and SKIP on EB3 track length and speed [2] | EB3 track length and speed compared to non-treated control ([2]; no ADNP plasmid) | Protection against Tau dissociation from MTs (N1E-115 cells) | Protection of polymerized tubulin against zinc-induced decay (N1E-115 cells)
1 | [Cl-].[Cl-].[Zn+2] [zinc, ZnCl2, reference compound] | significantly attenuated | – | – | – | – | – | –
2 | SKIP | – | reduced efficacy | prevented zinc adverse effect | no significant differences | increased EB3 track length and speed | only NAP exhibited protection | protected against zinc-induced decay
